The target of one data set is human PHD2184-418 (Homo sapiens (Human), UniProt Q9GZT9). Briefly: PHD2 inhibitory test (fluorescence polarization). The format is binding. To be noted: human PHD2184-418, FITC-labeled HIF-1α556-574 substrate, 2 μM 2-oxoglutarate, 37° C. 60 minutes. The procedure: (1) Expression and Preparation of Human PHD2184-418
Human PHD2184-418 containing amino acid residues 184 to 418 of the protein represented by CAC42509 (GenBank accession ID) was expressed and prepared by the following method.
An expression construct of human PHD2184-418 containing N-terminal histidine tag was introduced into pET-30a (+) vector, and the sequence was confirmed. This vector was introduced into BL21 (DE3) strain and cultured at 37° C. in LB medium containing antibiotics. After culturing, a cell lysis solution was added to the cells, and then the cells were disrupted by sonication. The disrupted suspension was centrifuged and the supernatant was purified by Ni column to give human PHD2184-418.
Human HIF-1α556-574 (FITC-labeled HIF-1α556-574), containing N-terminal FITC-Ahx, containing amino acid residues 556 to 574 (partial peptide) of HIF-1α was used as a substrate. Using FITC-labeled HIF-1α556-574, the competitive inhibition between 2-oxoglutarate and test compounds (PHD inhibitor) was evaluated based on the change in fluorescence polarization by the following method.
An enzyme (human PHD2184-418) and the substrate were diluted with an assay buffer (pH 7.4) containing 10 mM HEPES, 150 mM NaCl, 10 μM MnCl2-4H2O, 2 μM 2-oxoglutarate and 0.05% Tween-20. Test compounds were diluted with DMSO. Test compounds and human PHD2184-418 was added to the 384-well plate (Corning, black, opaque bottom) in advance. The reaction was started by the addition of FITC-labeled HIF-1α556-574. After incubating at 37° C. for 60 minutes, fluorescence polarization (excitation wavelength: 470 nm, fluorescence wavelength: 530 nm) was measured by PHERAstar FSX (BMG Labtech). Fluorescence polarization of each well was measured, and human PHD2 binding inhibitory activity of test compounds was calculated based on the value of test compound-free group.
(In general: Polarisation of emitted light reports the rotation of a fluorescent probe.)

Data set [1] has as its system TNBS induced colitis model rat. Briefly: Therapeutic effect in TNBS induced colitis model rat (intestinal permeability of FITC). The format is in vivo. Particulars: po, 72 h, SD rats, mean, read-out: Inhibition (%): suppressive rate on the intestinal permeability; for inhibition in vivo at 3 mg/kg: 3 mg/kg orally once a day for 3 days. The procedure: SD rats: 8-weeks-old male SLC (Japan SLC) were used. Under pentobarbital anesthesia, 300 μL of TNBS (28 mg/mL) which was prepared by 50% ethanol was administered at a point 8 cm from anus in large intestine to cause inflammation. To the solvent-treated group was administrated 300 μL of 50% ethanol. Animals were fasted for 48 hours prior to administration of TNBS. Test compounds (3 mg/kg or 10 mg/kg) prepared by 0.05% methylcellulose solution were orally administered once a day from next day, and it was administered for a total of 3 days. After administering for 3 days, 50 mg/kg FITC was orally administered at 4 hours after administration. Blood samples were collected from jugular vein under isoflurane anesthesia after 4 hours. The serum was centrifuged and fluorescence intensity was detected by PHERAstar FSX (BMG Labtech) to measure the concentration of FITC permeating into circulating blood through the mesentery. The suppressive rate on the intestinal permeability of test compounds was calculated based on the value of test compounds-free group as 0 and the value of TNBS-untreated group as 100.

The nature of data set [2]: Rat PK study: concentration of compounds in large intestine tissue and plasma. It counts as in vivo. To be noted: male, 3 mg/kg oral, non-fasted SD rats; for Kp at 8 h: large intestine tissue / plasma, read-out: C/P: ratio of Colon and Plasma; for Cmax: read-out: Cmax: maximum plasma concentration. The procedure: Test compounds (3 mg/kg/5 mL) prepared by 0.05% methylcellulose were orally administered to non-fasted rats (SD, 8-weeks-old, male, Japan SLC). Blood samples were collected from jugular vein at 0.25, 0.5, 1, 2, 4, 6 and 8 hours after the administration. Laparotomy was performed under isoflurane anesthesia and large intestine was isolated. Collected distal large intestine (about 5 cm) was cut open, and then the large intestine was washed with saline on a dish. After washing, the large intestine was minced by a small scissors. About 150 mg thereof was moved to tube. To the tube was added 100 μL of saline, the mixture was homogenized using shake master (1000 rpm×30 minutes). Samples were prepared by the addition with quadruple volume of saline as final volume. The concentrations of the test compound in large intestine tissue and plasma were measured through a quantitative analysis using liquid chromatography-mass spectrometry (LC/MS).
• Cmax: maximum plasma concentration of test compounds in the case of oral administration (ng/mL) • AUC: area under the plasma test compound concentration-time curve (ng*min/mL) • Plasma: plasma test compound concentration after 8 hours (ng/ml) • Colon: concentrations of the test compound in large intestine tissue after 8 hours (ng/g) • C/P: ratio of the above Colon and Plasma

Assay in data set [3]: as above
It counts as in vivo. To be noted: male, plasma, 3 mg/kg oral, non-fasted SD rats, read-out: AUC: area under the plasma test compound concentration-time curve (converted).

Setting [4] is: large intestine tissue (distal, colon), read-out: Colon: concentration in large intestine tissue after 8 hours.
Where [5] appears, read: plasma, read-out: Plasma: plasma test compound concentration after 8 hours.

Like-named read-outs stand apart in the source and are kept apart here.

In general, IC50 refers to the concentration needed to halve the response being measured.

Chain of human PHD2184-418 (Q9GZT9 184-418): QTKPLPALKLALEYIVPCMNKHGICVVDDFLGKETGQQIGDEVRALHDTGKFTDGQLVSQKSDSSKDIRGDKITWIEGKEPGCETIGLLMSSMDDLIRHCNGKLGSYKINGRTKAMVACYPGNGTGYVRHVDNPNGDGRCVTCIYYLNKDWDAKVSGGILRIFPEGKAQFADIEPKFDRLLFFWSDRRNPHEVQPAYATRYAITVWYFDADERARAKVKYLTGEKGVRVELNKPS

With `O=C(O)c1cnn(-c2nc3ncn(Cc4ccc(-c5ccccc5)cc4)c3c(=O)[nH]2)c1` [Example 1, 1-(7-([1,1′-Biphenyl]-4-ylmethyl)-6-oxo-6,7-dihydro-1H-purin-2-yl)-1H-pyrazole-4-carboxylic acid], the IC50 at human PHD2184-418 came to 90 nM. The inhibition in vivo at 10 mg/kg in data set [1] (10 mg/kg orally once a day for 3 days) stood at 54%. Further, the concentration at 8 h came out at 109 ng/g in data set [2] (setting [4]) and 3 ng/mL in data set [2] (setting [5]). For the same compound, the Kp at 8 h in data set [2] was determined as 36. Further, the Cmax in data set [2] (plasma) is 11 ng/mL. Besides, the AUC in data set [3] is 46.3 ng·h/mL.

Regarding `O=C(O)c1cnn(-c2nc3ncn(COCc4ccccc4)c3c(=O)[nH]2)c1` [Example 2, 1-(7-((Benzyloxy)methyl)-6-oxo-6,7-dihydro-1H-purin-2-yl)-1H-pyrazole-4-carboxylic acid], the midpoint of inhibition against human PHD2184-418, the IC50, lay at 640 nM. Moreover, the inhibition in vivo at 3 mg/kg in data set [1] is 51%. Besides, the concentration at 8 h is 188 ng/g in data set [2] (setting [4]) and less than 1 ng/mL in data set [2] (setting [5]). In addition, the Kp at 8 h in data set [2] is more than 188. For the same compound, the Cmax in data set [2] (plasma) stood at 3 ng/mL. The AUC in data set [3] is 0.833 ng·h/mL.

As to `O=C(O)c1cnn(-c2nc3ncn(Cc4ccc(O)cc4)c3c(=O)[nH]2)c1` [Example 3, 1-(7-(4-Hydroxybenzyl)-6-oxo-6,7-dihydro-1H-purin-2-yl)-1H-pyrazole-4-carboxylic acid], 640 nM corresponded to half-maximal inhibition against human PHD2184-418 (IC50). Also, the inhibition in vivo at 3 mg/kg in data set [1] came out at 93%. For the same compound, the figures for the concentration at 8 h in data set [2] (setting [4]) and in data set [2] (setting [5]) were 87 ng/g and less than 1 ng/mL, respectively. Besides, the Kp at 8 h in data set [2] is more than 87. The Cmax in data set [2] (plasma) was 6 ng/mL. Besides, in data set [3], the AUC was 3.27 ng·h/mL.

Take `CS(=O)(=O)c1ccc(Cn2cnc3nc(-n4cc(C(=O)O)cn4)[nH]c(=O)c32)cc1` [Example 4, 1-(7-(4-(Methylsulfonyl)benzyl)-6-oxo-6,7-dihydro-1H-purin-2-yl)-1H-pyrazole-4-carboxylic acid]: it took 530 nM to reach half-maximal inhibition against human PHD2184-418 (IC50). For the same compound, the inhibition in vivo at 3 mg/kg in data set [1] was determined as 66%. Besides, the concentration at 8 h stood at 94 ng/g in data set [2] (setting [4]) and 2 ng/mL in data set [2] (setting [5]). In addition, the Kp at 8 h in data set [2] amounted to 47. Moreover, in data set [2] (plasma), the Cmax was 6 ng/mL. In data set [3], the AUC was 29.2 ng·h/mL.

Consider `COc1ccc(Cn2cnc3nc(-n4cc(C(=O)O)cn4)[nH]c(=O)c32)cc1` [Example 11, 1-(7-(4-Methoxybenzyl)-6-oxo-6,7-dihydro-1H-purin-2-yl)-1H-pyrazole-4-carboxylic acid], for which the inhibition in vivo at 3 mg/kg in data set [1] stood at 83%. Besides, in data set [2] (plasma), the Cmax was 10 ng/mL. Moreover, the AUC in data set [3] is 18.2 ng·h/mL.

At human PHD2184-418, `O=C(O)c1ccc(Cn2cnc3nc(-n4cc(C(=O)O)cn4)[nH]c(=O)c32)cc1` [Example 12, 1-(7-(4-Carboxybenzyl)-6-oxo-6,7-dihydro-1H-purin-2-yl)-1H-pyrazole-4-carboxylic acid] returned an IC50 of 610 nM. Besides, the inhibition in vivo at 3 mg/kg in data set [1] amounted to 78%. Moreover, the concentration at 8 h in data set [2] (setting [4]) was found to be 67 ng/g; in data set [2] (setting [5]), 2 ng/mL. Also, the Kp at 8 h in data set [2] was 34. Further, in data set [2] (plasma), the Cmax was 16 ng/mL. Also, in data set [3], the AUC was 49.9 ng·h/mL.

`O=C(O)c1cnn(-c2nc3c(ncn3Cc3ccc(O)cc3)c(=O)[nH]2)c1` [Example 29, 1-(9-(4-Hydroxybenzyl)-6-oxo-6,9-dihydro-1H-purin-2-yl)-1H-pyrazole-4-carboxylic acid] showed an IC50 against human PHD2184-418 of 370 nM. In data set [1], the inhibition in vivo at 3 mg/kg was determined as 86%. The values for the concentration at 8 h in data set [2] (setting [4]) and in data set [2] (setting [5]) were 646 ng/g and less than 1 ng/mL, respectively. The Kp at 8 h in data set [2] is more than 646. For the same compound, in data set [2] (plasma), the Cmax was less than 1 ng/mL.

Consider `COc1ccc(Cn2cnc3c(=O)[nH]c(-n4cc(C(=O)O)cn4)nc32)cc1` [Example 35, 1-(9-(4-Methoxybenzyl)-6-oxo-6,9-dihydro-1H-purin-2-yl)-1H-pyrazole-4-carboxylic acid], for which it took 590 nM to reach half-maximal inhibition at human PHD2184-418 (IC50). Further, the inhibition in vivo at 3 mg/kg in data set [1] came out at 81%. The figures for the concentration at 8 h in data set [2] (setting [4]) and in data set [2] (setting [5]) were 11 ng/g and less than 1 ng/mL, respectively. The Kp at 8 h in data set [2] is more than 11. Moreover, the Cmax in data set [2] (plasma) was less than 1 ng/mL.

Take `Cl.O=C(O)c1cnn(-c2nc3ncn(Cc4ccc(OCCN5CCOCC5)cc4)c3c(=O)[nH]2)c1` [Example 75, 1-(7-(4-(2-Morpholinoethoxy)benzyl)-6-oxo-6,7-dihydro-1H-purin-2-yl)-1H-pyrazole-4-carboxylic acid hydrochloride]: at human PHD2184-418, the IC50 turned out to be 420 nM. Also, the inhibition in vivo at 3 mg/kg in data set [1] came out at 80%. The concentration at 8 h in data set [2] (setting [4]) was 323 ng/g; in data set [2] (setting [5]), 1 ng/mL. Further, the Kp at 8 h in data set [2] is more than 323. Moreover, the Cmax in data set [2] (plasma) was 4 ng/mL. Besides, the AUC in data set [3] is 12.9 ng·h/mL.

(Values after patent US12157739B2, “Hypoxanthine compounds” (KISSEI PHARMACEUTICAL CO., LTD., priority 2018, dated 2024).)
